# pIC50: −log10 of the molar value. Where two headings read alike, the source gives them in different places.
# Legend:
# 17-Beta HSD II Enzyme = molecular target: T1, 17-Beta HSD II Enzyme (Homo sapiens, UniProt P37059); assay: Primary assay: inhibition of 17-Beta HSD II enzyme (estradiol/NAD, PMS:MTS colorimetric readout at 490 nm); format: biochemical; details: Table 7, baculovirus-expressed recombinant HSD II, estradiol substrate
# T1 construct: made in house; host or cells: insect cells (baculovirus)
# T1 sequence (P37059 1-387): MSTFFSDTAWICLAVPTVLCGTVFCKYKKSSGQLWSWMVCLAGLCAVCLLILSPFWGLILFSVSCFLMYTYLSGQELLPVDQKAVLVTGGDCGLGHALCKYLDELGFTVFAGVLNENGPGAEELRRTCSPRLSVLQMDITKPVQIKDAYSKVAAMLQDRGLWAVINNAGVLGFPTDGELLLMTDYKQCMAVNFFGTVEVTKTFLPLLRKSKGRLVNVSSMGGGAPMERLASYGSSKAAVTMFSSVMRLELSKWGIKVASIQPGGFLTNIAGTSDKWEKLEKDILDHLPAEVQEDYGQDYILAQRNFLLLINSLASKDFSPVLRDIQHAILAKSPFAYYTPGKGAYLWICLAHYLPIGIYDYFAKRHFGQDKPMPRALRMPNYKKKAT
# Description: HSD II protein purification: The method for purification of baculovirus-expressed HSD II was standardized as follows. The insect cell pellet containing recombinant HSD II was lysed in 2.5 volumes of lysis buffer (40 mM Tris, pH 7.5, 1 mM EDTA, 2 mM DTT, 10 uM NAD) containing 500 uM AEBSF, 10 ug/ml aprotinin, 1 uM pepstatin A, and 100 uM leupeptin. The pellet was nutated for 30 min in this buffer. Subsequently, the pellet was homogenized with 15 strokes using a glass and teflon potter. The volume was doubled with a 2× sucrose/NaCl solution (500 mM sucrose, 300 mM NaCl in lysis buffer). After centrifugation at 10,000×g for 30 min, the supernatant was decanted and stored at −20° C. The pellet was resuspended in 2.5 volumes of lysis buffer containing 250 mM sucrose and 150 mM NaCl. Homogenization was repeated (15 strokes) and the suspension was centrifuged again and the decanted supernatant was stored at −20° C. The pellet was resuspended with 2 times the original pellet volume in lysis buffer containing 150 mM NaCl and 1% Triton X-100. The suspension was nutated for 20 min and then homogenized with 5 strokes. Subsequently, the suspension was centrifuged at 30,000×g for 1 h and supernatant was decanted and poured into a chromatographic column. Sephadex G-25 (fine) was added in small amounts, allowing approximately 15 min after each addition for complete swelling. Sephadex addition was continued until all liquid was absorbed. The protein was eluted with 1 void volume of lysis buffer and eluate monitored at 280 nm optical density. The chromatographic procedure was repeated and an equal volume of glycerol was added to the final eluate.
# Primary assay: After titration, the HSD II prep, generated with the standard protocol, was diluted to the appropriate concentration (generally 1/15 dilution). 55 μl of assay buffer (50 mM Hepes, pH 8.0) was added to all wells of a 96 well plate. 5 μl of 5% DMSO were added to wells A1-C1, A2-C2, F1-H1, and F2-H2. A 10 μl aliquot of a 10 mM solution in DMSO of each compound was diluted in 190 μl of assay buffer. The plate with these compound dilutions was then mixed for 15 min on a shaker and a 5 μl aliquot from each well was added to the […]. This was followed by 10 μl of HSD II enzyme ( 1/15 dilution)/estradiol mix in assay buffer containing 1% Triton X-100. The estradiol […] from a 20 mM estradiol DMSO stock solution, which was diluted 1/20 (50 μl/ml) in 50 mM Hepes buffer containing 1% Triton X-100. All wells, except F1-H1 and F2-H2, also received 10 μl of 25 mg/ml NAD (SIGMA) in 100 mM Hepes, pH 9. The blank wells F1-H1 and F2-H2 received 10 μl of NAD buffer. 20 μl of PMS:MTS solution (100 μl PMS into 1800 μl MTS, Promega) was added to all wells. The plate was covered with aluminum foil and incubated at room temperature for 1.5 h. The plate was analyzed at 490 nm on a Hewlett Pachard 8453 spectrophotometer and results were calculated.
# [1] = read-out: IC50 values ≧2 μM and <10 μM
Structure (SMILES),melting point,pIC50 (17-Beta HSD II Enzyme; [1]),pIC50 (17-Beta HSD II Enzyme)
CN(C)c1ccc(-c2ccc([C@@H](O)[C@H]3[C@@H](c4ccccc4)CC(=O)N3C)s2)cc1F (racemic) [Example 28],173 °C,5.00 to 5.70,
CN1C(=O)C[C@H](c2ccccc2)[C@@H]1[C@H](O)c1ccc(-c2cccs2)s1 (racemic) [Example 29],152 °C,,> 6.30
COc1cccc(-c2ccc(C(O)C3C(c4ccccc4)CC(=O)N3C)s2)c1 (racemic) [Example 31],128 °C,,> 6.30
CN1C(=O)C[C@H](c2ccccc2)[C@@H]1[C@H](O)c1ccc(-c2ccccc2C(F)(F)F)s1 (racemic) [Example 34],192 °C,,> 6.30
CN1C(=O)C[C@H](c2ccccc2)[C@@H]1[C@H](O)c1ccc(S(=O)(=O)N2CCSCC2)s1 (racemic) [Example 35],197 to 199 °C,,> 6.30
CN1C(=O)CC(c2ccccc2)C1C(O)c1ccc(S(=O)(=O)N2CCN(c3ccc(F)cc3)CC2)s1 (racemic) [Example 37],167 to 175 °C,,> 6.30
Cc1sc([C@@H](O)[C@H]2[C@@H](c3ccccc3)CC(=O)N2C)cc1-c1ccccc1 (racemic) [Example 38],78 to 82 °C,,> 6.30
Cc1cc(-c2ccccc2)c([C@@H](O)[C@H]2[C@@H](c3ccccc3)CC(=O)N2C)s1 (racemic) [Example 43],85 °C,,> 6.30
CN1C(=O)CC(c2ccccc2)C1C(O)c1ccc(-c2cccc([N+](=O)[O-])c2)s1 (racemic) [Example 44],150 °C,,> 6.30
Cc1c(C(O)C2C(c3ccccc3)CC(=O)N2C)sc2ccc(F)cc12 (racemic) [Example 53],175 to 177 °C,,> 6.30
CN1C(=O)C[C@H](c2ccccc2)[C@@H]1[C@H](O)c1csc2ccccc12 (racemic) [Example 54],> 210 °C,5.00 to 5.70,
COc1ccc(S(=O)(=O)c2ccc([C@@H](O)[C@H]3[C@@H](c4ccccc4)CC(=O)N3C)s2)cc1 (racemic) [Example 58],203 to 205 °C,,> 6.30
CN1C(=O)CC(c2ccccc2)C1C(O)c1ccc(S(=O)(=O)c2ccc(Cl)cc2)s1 (racemic) [Example 62],207 to 208 °C,,> 6.30
CSc1ccc(-c2ccc([C@@H](O)[C@H]3[C@@H](c4ccccc4)CC(=O)N3C)s2)cc1 (racemic) [Example 69],187 °C,5.00 to 5.70,
CN1C(=O)C[C@H](c2ccccc2)[C@@H]1[C@H](O)c1ccc(-c2ccccc2F)s1 (racemic) [Example 71],216 °C,,> 6.30
Cc1ccc(-c2ccc([C@@H](O)[C@H]3[C@@H](c4ccccc4)CC(=O)N3C)s2)c(F)c1 (racemic) [Example 72],182 °C,,> 6.30
CN1C(=O)C[C@H](c2ccccc2)[C@@H]1[C@H](O)c1ccc(-c2cccc(NS(C)(=O)=O)c2)s1 (racemic) [Example 73],199 °C,,> 6.30
CN1C(=O)CC(c2ccccc2)C1C(O)c1ccc(-c2cccnc2)s1 (racemic) [Example 78],210 °C,,> 6.30
CN1C(=O)C[C@H](c2ccccc2)[C@@H]1[C@H](O)c1ccc(-c2cccnc2)s1 (racemic) [Example 79],,,> 6.30

Structure (SMILES),melting point,pIC50 (17-Beta HSD II Enzyme; [1]),pIC50 (17-Beta HSD II Enzyme)
CN1C(=O)C[C@H](c2ccccc2F)[C@@H]1[C@H](O)c1ccc(-c2ccccc2)s1 (racemic) [Example 83],219 to 220 °C (dec.),,> 6.30
"CN1C(=S)C[C@H](c2ccccc2)[C@@H]1[C@H](O)c1cccs1 (relative stereo) [Example 1, (±)-(4R*,5R*)-5-((1S*)-hydroxy-2-thienylmethyl)-1-methyl-4-phenylpyrrolidin-2-thione]",,5.00 to 5.70,
"CN1C(=O)C[C@H](c2ccccc2)[C@@H]1COc1cccc(Cl)c1 (relative stereo) [Example 2, (±)-(4R*,5R*)-5-[(3-chlorophenoxy)methyl]-1-methyl-4-phenylpyrrolidin-2-one]",,5.00 to 5.70,
"CN1C(=O)C[C@H](c2ccccc2)[C@@H]1[C@H](O)C#Cc1ccccc1 (relative stereo) [Example 8, (±)-5-((1R*)-1-hydroxy-3-phenylprop-2-ynyl)(4R*,5R*)-1-methyl-4-phenylpyrrolidin-2-one]",,,> 6.30
CSC(c1cc2ccccc2[nH]1)[C@H]1[C@@H](c2ccccc2)CC(=O)N1C (relative stereo) [Example 10],,,> 6.30
"CN(C)c1ccc([C@H]2CC(=O)N(C)[C@H]2[C@H](O)c2ccc(-c3ccccc3)s2)cc1 (relative stereo) [Example 19, (±)-(4R*,5R*)-5-[(1S*)-hydroxy(5-phenyl(2-thienyl))methyl]-1-methyl-4-[4-(dimethylamino)phenyl]pyrrolidin-2-one]",,5.00 to 5.70,
"CN1C(=O)C[C@H](c2ccc(O)cc2)[C@@H]1[C@H](O)c1ccc(-c2ccccc2)s1 (relative stereo) [Example 20, (±)-(4R*,5R*)-5-[(1S*)-hydroxy(5-phenyl(2-thienyl))methyl]-1-methyl-4-[4-hydroxyphenyl]pyrrolidin-2-one]",,,> 6.30
"CN1C(=O)C[C@H](c2ccc(CO)cc2)[C@@H]1[C@H](O)c1ccc(-c2ccccc2)s1 (relative stereo) [Example 21, (±)-(4R*,5R*)-5-[(1S*)hydroxy(5-phenyl(2-thienyl))methyl]-4-[4-(hydroxymethyl)phenyl]-1-methylpyrrolidin-2-one]",,5.00 to 5.70,
"CN1C(=O)C[C@H](c2ccc(-c3ccc(F)cc3)cc2)[C@@H]1[C@H](O)c1ccc(-c2ccccc2)s1 (relative stereo) [Example 22, (±)-(4R*,5R*)-5-[(1S*)hydroxy(5-phenyl(2-thienyl))-methyl]-4-[4-(4-fluorophenyl)phenyl]-1-methylpyrrolidin-2-one]",,5.00 to 5.70,
"CN1C(=O)C[C@H](c2ccccc2)[C@@H]1[C@H](O)c1ccc(-c2cccc(NC(=O)Nc3ccc(F)cc3)c2)s1 (relative stereo) [Example 25, (±)-(4R*,5R*)-5-{(1S*)[5-(3-{[(4-fluorophenyl)amino]carbonylamino}phenyl)(2-thienyl)]hydroxymethyl}-1-methyl-4-phenylpyrrolidin-2-one]",,5.00 to 5.70,
"CN1C(=O)C[C@H](c2ccccc2)[C@@H]1[C@@H](O)c1ccc(-c2ccccc2)s1 [Example 11, (4R,5R)-5-[(1R)-hydroxy(5-phenyl(2-thienyl))methyl]-1-methyl-4-phenylpyrrolidin-2-one]",,,> 6.30
CN1C(=O)CC(c2ccccc2)C1C(O)c1ccc(-c2c(F)cccc2F)s1 (centres unmarked) [Example 30],,,> 6.30
CN1C(=O)CC(c2ccccc2)C1C(O)c1ccc(-c2ccc(Cl)cc2)s1 (centres unmarked) [Example 51],,,> 6.30
CN1C(=O)CC(c2ccccc2)C1C(O)C#Cc1ccccc1F (centres unmarked) [Example 127],,,> 6.30
CN1C(=O)C[C@H](c2ccccc2)[C@@H]1[C@H](O)c1ccc(-c2ccc(F)cc2)s1 [Example 146],,,> 6.30
CN1C(=O)C[C@H](c2ccccc2)[C@@H]1[C@H](O)c1ccc(-c2ccccn2)s1 [Example 147],,,> 6.30
CN1C(=O)C[C@H](c2ccccc2)[C@@H]1[C@H](O)c1ccc(-c2cccnc2)s1 [Example 148],,,> 6.30
CN1C(=O)C[C@H](c2ccccc2)[C@@H]1[C@H](O)c1ccc(S(=O)(=O)c2ccccc2)s1 [Example 149],,,> 6.30
